# According to the supplement of paper PMC10733146:
# Columns and labels:
# Assay in all cases: viability relative to DMSO control (fraction); higher = less drug effect (more viable cells)
# Conditions in all cases: 48 h
# [1] = system: primary ALL patient cells (S048)
# How it was run: (§1)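 Using 384-well plates with compounds already plated at five concentrations, one well per concentration, 4 × 10^4 primary mononuclear tumour cells were added per well. Cells were Ficoll-isolated from blood or bone marrow or came from processed lymph node, fresh or cryopreserved. They were kept for 48 h at 37 °C and 5% CO2 in RPMI-1640 supplemented with penicillin/streptomycin, L-glutamine and human serum, and viability was read as CellTiter-Glo luminescence relative to the median of 16 inner DMSO wells.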
# [2] = system: primary ALL patient cells (S088)
# How it was run: as §1
# [3] = system: primary AML patient cells (S006)
# How it was run: as §1
# [4] = system: primary AML patient cells (S055)
# How it was run: as §1
# [5] = system: primary AML patient cells (S056)
# How it was run: as §1
# [6] = system: primary AML patient cells (S060)
# How it was run: as §1
# [7] = system: primary AML patient cells (S071)
# How it was run: as §1
# [8] = system: primary AML patient cells (S072)
# How it was run: as §1
# [9] = system: primary AML patient cells (S079)
# How it was run: as §1
# [10] = system: primary AML patient cells (S089)
# How it was run: as §1
# [11] = system: primary CLL patient cells (S031)
# How it was run: as §1
# [12] = system: primary CLL patient cells (S043)
# How it was run: as §1
# [13] = system: primary DLBCL patient cells (S082)
# How it was run: as §1
# [14] = system: primary MCL patient cells (S063)
# How it was run: as §1
compound,measurement,setting,value
CCc1nc(C(N)=O)c(Nc2ccc(N3CCC(N4CCN(C)CC4)CC3)c(OC)c2)nc1NC1CCOCC1 [Gilteritinib],viability,[1]; 0.024 µM,0.876
same,viability,[1]; 0.12 µM,0.819
same,viability,[1]; 0.6 µM,0.646
same,viability,[1]; 3 µM,0.717
same,viability,[1]; 15 µM,0.531
same,viability,[2]; 0.024 µM,0.698
same,viability,[2]; 0.12 µM,0.545
same,viability,[2]; 0.6 µM,0.388
same,viability,[2]; 3 µM,0.414
same,viability,[2]; 15 µM,0.131
same,viability,[3]; 0.024 µM,0.393
same,viability,[3]; 0.12 µM,0.381
same,viability,[3]; 0.6 µM,0.382
same,viability,[3]; 3 µM,0.729
same,viability,[3]; 15 µM,0.563
same,viability,[4]; 0.024 µM,1.04
same,viability,[4]; 0.12 µM,1.03
same,viability,[4]; 0.6 µM,0.573
same,viability,[4]; 3 µM,0.638
same,viability,[4]; 15 µM,0.821
same,viability,[5]; 0.024 µM,0.404
same,viability,[5]; 0.12 µM,0.385
same,viability,[5]; 0.6 µM,0.339
same,viability,[5]; 3 µM,0.497
same,viability,[5]; 15 µM,0.644
same,viability,[6]; 0.024 µM,1
same,viability,[6]; 0.12 µM,1.06
same,viability,[6]; 0.6 µM,0.965
same,viability,[6]; 3 µM,0.663
same,viability,[6]; 15 µM,0.428
same,viability,[7]; 0.024 µM,0.564
same,viability,[7]; 0.12 µM,0.457
same,viability,[7]; 0.6 µM,0.465
same,viability,[7]; 3 µM,0.551
same,viability,[7]; 15 µM,0.878
same,viability,[8]; 0.024 µM,0.983
same,viability,[8]; 0.12 µM,0.882
same,viability,[8]; 0.6 µM,0.54
same,viability,[8]; 3 µM,0.368
same,viability,[8]; 15 µM,0.285
same,viability,[9]; 0.024 µM,1.26
same,viability,[9]; 0.12 µM,0.887
same,viability,[9]; 0.6 µM,0.735
same,viability,[9]; 3 µM,0.626
same,viability,[9]; 15 µM,0.469
same,viability,[10]; 0.024 µM,0.956
same,viability,[10]; 0.12 µM,0.552
same,viability,[10]; 0.6 µM,0.512
same,viability,[10]; 3 µM,0.379
same,viability,[10]; 15 µM,0.311
same,viability,[11]; 0.024 µM,1.13
same,viability,[11]; 0.12 µM,1
same,viability,[11]; 0.6 µM,0.785
same,viability,[11]; 3 µM,0.791
same,viability,[11]; 15 µM,0.188
same,viability,[12]; 0.024 µM,1.04
same,viability,[12]; 0.12 µM,1.01
same,viability,[12]; 0.6 µM,0.7
same,viability,[12]; 3 µM,0.519
same,viability,[12]; 15 µM,0.393
same,viability,[13]; 0.024 µM,1.14
same,viability,[13]; 0.12 µM,0.761
same,viability,[13]; 0.6 µM,0.409
same,viability,[13]; 3 µM,0.459
same,viability,[13]; 15 µM,0.476
same,viability,[14]; 0.024 µM,1.11
same,viability,[14]; 0.12 µM,1.13
same,viability,[14]; 0.6 µM,0.706
same,viability,[14]; 3 µM,0.42
same,viability,[14]; 15 µM,0.209
CC(C)C[C@H](NC(=O)CNC(=O)c1cc(Cl)ccc1Cl)B(O)O [Ixazomib],viability,[1]; 0.008 µM,1.04
same,viability,[1]; 0.04 µM,0.94
same,viability,[1]; 0.2 µM,0.961
same,viability,[1]; 1 µM,0.994
same,viability,[1]; 5 µM,1.05
same,viability,[2]; 0.008 µM,0.741
same,viability,[2]; 0.04 µM,0.839
same,viability,[2]; 0.2 µM,0.793
same,viability,[2]; 1 µM,0.851
same,viability,[2]; 5 µM,0.996
same,viability,[3]; 0.008 µM,0.929
same,viability,[3]; 0.04 µM,1
same,viability,[3]; 0.2 µM,0.924
same,viability,[3]; 1 µM,1.04
same,viability,[3]; 5 µM,1.01
same,viability,[4]; 0.008 µM,0.936
same,viability,[4]; 0.04 µM,0.984
same,viability,[4]; 0.2 µM,0.953
same,viability,[4]; 1 µM,0.992
same,viability,[4]; 5 µM,0.941
same,viability,[5]; 0.008 µM,0.755
same,viability,[5]; 0.04 µM,0.894
same,viability,[5]; 0.2 µM,1.11
same,viability,[5]; 1 µM,0.9
same,viability,[5]; 5 µM,0.893
same,viability,[6]; 0.008 µM,1.03
same,viability,[6]; 0.04 µM,0.988
same,viability,[6]; 0.2 µM,1.03
same,viability,[6]; 1 µM,1.02
same,viability,[6]; 5 µM,1.01
same,viability,[7]; 0.008 µM,1.01
same,viability,[7]; 0.04 µM,0.972
same,viability,[7]; 0.2 µM,0.995
same,viability,[7]; 1 µM,0.98
same,viability,[7]; 5 µM,0.974
same,viability,[8]; 0.008 µM,1.09
same,viability,[8]; 0.04 µM,0.984
same,viability,[8]; 0.2 µM,0.838
same,viability,[8]; 1 µM,0.922
same,viability,[8]; 5 µM,0.934
same,viability,[9]; 0.008 µM,0.988
same,viability,[9]; 0.04 µM,0.914
same,viability,[9]; 0.2 µM,0.888
same,viability,[9]; 1 µM,1
same,viability,[9]; 5 µM,1.02
same,viability,[10]; 0.008 µM,1.07
same,viability,[10]; 0.04 µM,0.69
same,viability,[10]; 0.2 µM,0.968
same,viability,[10]; 1 µM,0.583
same,viability,[10]; 5 µM,0.627
same,viability,[11]; 0.008 µM,0.876
same,viability,[11]; 0.04 µM,1.04
same,viability,[11]; 0.2 µM,1.01
same,viability,[11]; 1 µM,1.05
same,viability,[11]; 5 µM,1.02
same,viability,[12]; 0.008 µM,0.915
same,viability,[12]; 0.04 µM,0.73
same,viability,[12]; 0.2 µM,0.987
same,viability,[12]; 1 µM,0.74
same,viability,[12]; 5 µM,0.781
same,viability,[13]; 0.008 µM,0.858
same,viability,[13]; 0.04 µM,0.964
same,viability,[13]; 0.2 µM,0.815
same,viability,[13]; 1 µM,1.06
same,viability,[13]; 5 µM,1.01
same,viability,[14]; 0.008 µM,0.919
same,viability,[14]; 0.04 µM,1.02
same,viability,[14]; 0.2 µM,0.921
same,viability,[14]; 1 µM,0.993
same,viability,[14]; 5 µM,0.953
